# Reference: patent publication US7799829B2, “Acyloxyalkyl carbamate prodrugs of α-amino acids, methods of synthesis and use” (XenoPort, Inc., priority 2006, dated 2010)
# Experiments:
# [1] = Bioavailability of α-amino acid following intracolonic administration of prodrugs in rats (intravenous α-amino acid as reference); assay type: in vivo; conditions: for colonic bioavailability of 1-aminocyclopropanecarboxylic acid: intracolonic administration of prodrug, 1-aminocyclopropanecarboxylic acid released post absorption
# Description: Rats are obtained commercially and were pre-cannulated in the both the ascending colon and the jugular vein. Animals were conscious at the time of the experiment. All animals were fasted overnight and until 4 hours after dosing of an α-amino acid prodrug. An α-amino acid or the corresponding prodrug was administered as a solution (in water) directly into the colon via the cannula at a dose equivalent to about 75 mg or other appropriate dose of an α-amino acid per kg body weight. Blood samples (0.3 mL) were obtained from the jugular cannula at intervals over 8 hours and were quenched immediately by addition of sodium metabisulfite to prevent oxidation of the α-amino acid. Blood was then further quenched with methanol/perchloric acid to prevent hydrolysis of the prodrug. Blood samples were analyzed as described.
# 300 μL of methanol was added to 1.5 mL tubes. Rat or monkey blood (100 μL) was collected at different times into the tubes and vortexed to mix. 90 μL of blood was quenched with 300 μL methanol. 10 μL of a standard stock solution containing an α-amino acid (0.04, 0.2, 1, 5, 25, and 100 μg/mL) and 20 μL of p-chlorophenylalanine eas added to 90 μL of blood to make up a final calibration standard (0.004, 0.02, 0.1, 0.5, 2.5, and 10 μg/mL). Samples were vortexed and centrifuged at 3400 rpm for 20 min. The supernatant was analyzed by LC/MS/MS.
# An API 4000 LC/MS/MS spectrometer equipped with Agilent 1100 binary pumps and a CTC HTS-PAL autosampler and an Agilent Zorbax Eclipse XBD-C8, 4.6×150 mm, 3.5 μM column was used for the analysis. The mobile phase was 0.02% heptafluorobutyric acid in water (A) and 0.02% heptafluorobutyric acid in acetonitrile (B). The flow rate was 1.0 mL/min. The gradient condition was: 5% B for 2 min, then to 10% B for 1 min. Then the mobile phase was returned to 5% B for 1.1 min. A TurboIonSpray source was used in the API 4000. The analysis was done in either negative ion mode or positive ion mode as appropriate and the MRM transition for each analyte was optimized using a standard solution. 20 μL of the samples were injected. Non-compartmental analysis was performed using WinNonlin software (v.3.1 Professional Version, Pharsight Corporation, Mountain View, Calif.) on individual animal profiles. Summary statistics on major parameter estimates was performed for Cmax (peak observed concentration following dosing), Tmax (time to maximum concentration is the time at which the peak concentration was observed), AUC(0-t) (area under the plasma concentration-time curve from time zero to last collection time, estimated using the log-linear trapezoidal method), AUC(0-∞), (area under the plasma concentration time curve from time zero to infinity, estimated using the log-linear trapezoidal method to the last collection time with extrapolation to infinity), and t1/2,z (terminal half-life).
# The oral or intracolonic bioavailability (F) of an α-amino acid was determined by comparing the area under the α-amino acid concentration vs. time curve (AUC) following oral or intracolonic administration of α-amino acid or prodrug thereof with the AUC of the α-amino acid concentration vs. time curve following intravenous administration of the α-amino acid on a dose normalized basis (e.g., % Fic=AUC (following intracolonic administration of an α-amino acid prodrug)/AUC (following intravenous administration of an equivalent dose of the corresponding α-amino acid)). […] In monkeys, following, colonic administration of α-amino acid prodrug 2, the bioavailability of 1-aminocyclopropanecarboxylic acid was determined to be about 4-fold greater than after colonic administration of 1-aminocyclopropanecarboxylic acid itself (at 20 mg-eq/kg).
melting point,colonic bioavailability of 1-aminocyclopropanecarboxylic acid [1],"AUC(0-inf) ([1]; rat, whole blood, intravenous, dosed at 20 mg-eq/kg, used as reference for bioavailability calculations, read-out: AUCinf for the intravenously administered α-amino acid)",SMILES
177.7 to 182.5 °C,–,–,"Cc1ccc(C(=O)OCCOC(=O)NC2(C(=O)O)CC2)cc1 [Compound 21, 1-{[(4-Methylphenylcarbonyloxy)ethoxy]carbonylamino}cyclopropanecarboxylic Acid]"
169.3 to 172.2 °C,substantial,–,"O=C(/C=C/c1ccccc1)OCCOC(=O)NC1(C(=O)O)CC1 [Compound 16, 1-{[((2E)-3-Phenylprop-2-enoyloxy)ethoxy]carbonylamino}cyclopropanecarboxylic Acid]"
132.9 to 134.4 °C,–,–,"O=C(CCc1ccccc1)OCCOC(=O)NC1(C(=O)O)CC1 [Compound 17, 1-{[(3-Phenylpropanoyloxy)ethoxy]carbonylamino}cyclopropanecarboxylic Acid]"
147.8 to 150.2 °C,substantial,–,"CC(C)C(OC(=O)/C=C/c1ccccc1)OC(=O)NC1(C(=O)O)CC1 (stereo not drawn) [Compound 18, 1-{[1-((2E)-3-Phenylprop-2-enoyloxy)-2-methylpropoxy]carbonylamino}cyclopropanecarboxylic Acid]"
112.6 to 113.2 °C,–,–,"CCCCCCC(=O)OCCOC(=O)NC1(C(=O)O)CC1 [Compound 13, 1-[(Heptanoyloxyethoxy)carbonylamino]cyclopropanecarboxylic Acid]"
171.8 to 173.6 °C,–,–,"COc1ccc(C(=O)OCCOC(=O)NC2(C(=O)O)CC2)cc1OC [Compound 14, 1-{[(3,4-Dimethoxyphenylcarbonyloxy)ethoxy]carbonylamino}cyclopropanecarboxylic Acid]"
148 to 151.1 °C,–,–,"CCCCC(=O)OC(C)OC(=O)NC1(C(=O)O)CC1 (stereo not drawn) [Compound 8, 1-(1-Pentanoyloxy-ethoxycarbonylamino)-cyclopropanecarboxylic Acid]"
123.6 to 125.3 °C,–,–,"O=C(NC1(C(=O)O)CC1)OCCOC(=O)C1CCCCC1 [Compound 10, 1-[(Cyclohexylcarbonyloxyethoxy)carbonylamino]cyclopropanecarboxylic Acid]"
156 to 158.5 °C,substantial,–,"CC(C)C(OC(=O)NC1(C(=O)O)CC1)OC(=O)C1CCCCC1 (stereo not drawn) [Compound 11, 1-[(1-Cyclohexylcarbonyloxy-2-methylpropoxy)carbonylamino]cyclopropanecarboxylic Acid]"
–,substantial,–,"CC(C)C(OC(=O)NC1(C(=O)O)CC1)OC(=O)c1ccccc1 (stereo not drawn) [Compound 12, 1-[(2-Methyl-1-phenylcarbonyloxypropoxy)carbonylamino]cyclopropanecarboxylic Acid]"
–,substantial,–,"CC(C)C(=O)OC(OC(=O)NC1(C(=O)[O-])CC1)C(C)C.[Na+] (stereo not drawn) [Compound 23, 1-{[2-Methyl-1-(2-methylpropanoyloxy)propoxy]carbonylamino}Sodium Cyclopropanoate]"

# Second part, the compound before the results:
SMILES,melting point,colonic bioavailability of 1-aminocyclopropanecarboxylic acid [1],"AUC(0-inf) ([1]; rat, whole blood, intravenous, dosed at 20 mg-eq/kg, used as reference for bioavailability calculations, read-out: AUCinf for the intravenously administered α-amino acid)"
"CC(C)CC(=O)OC(C)OC(=O)NC1(C(=O)O)CC1 (stereo not drawn) [Compound 5, 1-[1-(3-Methyl-butyryloxy)-ethoxycarbonylamino]-cyclopropanecarboxylic Acid]",116.6 to 119.1 °C,–,–
"CC(OC(=O)NC1(C(=O)O)CC1)OC(=O)C(C)C (stereo not drawn) [Compound 1, 1-(1-Isobutyryloxy-ethoxycarbonylamino)-cyclopropanecarboxylic Acid]",127 to 129.5 °C,–,–
"CC(C)C(=O)OC(OC(=O)NC1(C(=O)O)CC1)C(C)C (stereo not drawn) [Compound 2, 1-(1-Isobutyryloxy-2-methyl-propoxycarbonylamino)-cyclopropanecarboxylic Acid]",127.4 to 129 °C,substantial,–
"O=C(NC1(C(=O)O)CC1)OCCOC(=O)c1ccccc1 [Compound 4, 1-[(Phenylcarbonyloxyethoxy)carbonylamino]cyclopropanecarboxylic Acid]",173.8 to 175.8 °C,substantial,–
"CCCC(=O)OC(C)OC(=O)NC1(C(=O)O)CC1 (stereo not drawn) [Compound 7, 1-(1-Butyryloxy-ethoxycarbonylamino)-cyclopropanecarboxylic Acid]",90.4 to 93.4 °C,–,–
O=C(Cc1ccccc1)OCCOC(=O)NC1(C(=O)O)CC1,142.1 to 145.6 °C,–,–
"Cc1ccccc1C(=O)OCCOC(=O)NC1(C(=O)O)CC1 [Compound 3, 1-{[(2-Methylphenylcarbonyloxy)ethoxy]carbonylamino}cyclopropanecarboxylic Acid]",–,substantial,–
"NC1(C(=O)O)CC1 [1-aminocyclopropanecarboxylic acid, reference compound]",–,–,85900 ng·h/mL
